Experimental data published in PubChem BioAssay (NCI).
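Following 48 hours of exposure in 96-well plates, responses at five concentrations were used to interpolate endpoints linearly. The concentration for full growth arrest is given as TGI.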

Experiments:
Experiment in all cases: NCI tumour cell line growth inhibition, 48 h
786-0 renal = tested on: 786-0 renal
A549 NSCLC = tested on: A549 NSCLC
ACHN renal = tested on: ACHN renal
BT-549 breast = tested on: BT-549 breast
CAKI-1 renal = tested on: CAKI-1 renal
CCRF-CEM leukemia = tested on: CCRF-CEM leukemia
COLO 205 colon = tested on: COLO 205 colon
DU-145 prostate = tested on: DU-145 prostate
EKVX NSCLC = tested on: EKVX NSCLC
HCC-2998 colon = tested on: HCC-2998 colon
HCT-116 colon = tested on: HCT-116 colon
HCT-15 colon = tested on: HCT-15 colon
HL-60(TB) leukemia = tested on: HL-60(TB) leukemia
HOP-62 NSCLC = tested on: HOP-62 NSCLC
HS 578T breast = tested on: HS 578T breast
HT29 colon = tested on: HT29 colon
IGROV1 ovarian = tested on: IGROV1 ovarian
K-562 leukemia = tested on: K-562 leukemia
KM12 colon = tested on: KM12 colon
LOX IMVI melanoma = tested on: LOX IMVI melanoma
M14 melanoma = tested on: M14 melanoma
MALME-3M melanoma = tested on: MALME-3M melanoma
MDA-MB-231 breast = tested on: MDA-MB-231 breast
MDA-MB-435 = tested on: MDA-MB-435
MDA-N = tested on: MDA-N
MOLT-4 leukemia = tested on: MOLT-4 leukemia
NCI-H226 lung = tested on: NCI-H226 lung
NCI-H23 lung = tested on: NCI-H23 lung
NCI-H460 lung = tested on: NCI-H460 lung
NCI/ADR-RES ovarian = tested on: NCI/ADR-RES ovarian
OVCAR-3 ovarian = tested on: OVCAR-3 ovarian
OVCAR-4 ovarian = tested on: OVCAR-4 ovarian
OVCAR-5 ovarian = tested on: OVCAR-5 ovarian
OVCAR-8 ovarian = tested on: OVCAR-8 ovarian
PC-3 prostate = tested on: PC-3 prostate
RPMI-8226 leukemia = tested on: RPMI-8226 leukemia
RXF 393 renal = tested on: RXF 393 renal
SF-268 CNS = tested on: SF-268 CNS
SF-295 CNS = tested on: SF-295 CNS
SF-539 CNS = tested on: SF-539 CNS
SK-MEL-2 melanoma = tested on: SK-MEL-2 melanoma
SK-MEL-28 melanoma = tested on: SK-MEL-28 melanoma
SK-MEL-5 melanoma = tested on: SK-MEL-5 melanoma
SK-OV-3 ovarian = tested on: SK-OV-3 ovarian
SN12C renal = tested on: SN12C renal
SNB-19 CNS = tested on: SNB-19 CNS
SNB-75 CNS = tested on: SNB-75 CNS
SW-620 colon = tested on: SW-620 colon
T-47D breast = tested on: T-47D breast
TK-10 renal = tested on: TK-10 renal
U251 CNS = tested on: U251 CNS
UACC-257 melanoma = tested on: UACC-257 melanoma
UACC-62 melanoma = tested on: UACC-62 melanoma
UO-31 renal = tested on: UO-31 renal

Measured: TGI

CN1CCC2(CC1)C(=O)N(NC(N)=O)C(=O)C2c1ccccc1 (centres undefined)
> 100 µM: all assays above
